Literature values as cited in patent US9928346B1, “Test panel to measure blood neurotoxin levels in prematernal women and for the general public in relation to mental disorders of the aging” (priority 2016, dated 2018).
Where two headings read alike, the source gives them in different places.

Key:
[1] = orally consumed, toxicology assessment
[2] = for Minimum Risk Level: blood levels
[3] = for an average man

SMILES | Minimum Risk Level [1] [mg Al/kg body weight/day] | absorption by the intestines (digested aluminum) [%] | absorbed in the blood (intravenous injection from a vaccine) [%] | Minimum Risk Level [2] [microgram per liter] | MRL for blood content ([2]; recommended by Mayo Clinic and Micro Trace Minerals diagnostic centers) [microgram/liter] | tentative dietary suggestions [3]
[Al] [Aluminum, aluminum] | 1.0 | 1 | 100 | <6 | < 6 | 
[AsH3] [Arsenic, arsenic] |  |  |  | <10 |  | 
[Pb] [Lead, lead] |  |  |  | <50 |  | 
[Mn+2] [Manganese, manganese] |  |  |  | <18 |  | about 10 mg/day
